From patent US5136090A, “Biphenyl-5,5'-bis-alkanoic acid derivatives, their production and aldose reductase inhibitors containing the same” (Toyo Jozo Kabushiki Kaisha, priority 1990, dated 1992)

What was measured:
[1] = biological target: T1, partially purified bovine lens aldose reductase (Bos taurus, UniProt P16116); assay: Inhibitory activity on aldose reductase enzyme reaction; format: biochemical; conditions: for inhibition at 0.02 µg/mL: concentration 0.02 μg/ml; for inhibition at 0.1 µg/mL: concentration 0.1 μg/ml; for inhibition at 1 µg/mL: concentration 1.0 μg/ml
T1 construct: partially purified bovine lens aldose reductase; from tissue; host or cells: bovine lens
Protocol: The preparation of aldose reductase and the determination of its inhibitory action on enzyme reaction activity were carried out pursuant to the procedures disclosed by Haymann et al. in Journal of Biological Chemistry, 240, 877 (1965).
The sample solution to be examined for inhibitory activity was prepared by dissolving a compound of formula (I) according to the present invention in a small amount of methanol and increasing the volume of the resulting methanol solution by diluting it with distilled water up to tenfold volume. A partially purified bovine lens aldose reductase was used for the assay.
To 2.4 ml of a solution of 5×10^-5 M NADPH dissolved in a 2/15M phosphate buffer solution (pH 6.0), 0.4 ml of the enzyme solution (15 m units/ml) and 0.1 ml of the sample solution to be examined were added and the mixture was introduced into a quartz cell in a photoelectric photometer and subjected to pre-incubation at 37° C. for 4 mins. Then, 0.1 ml of a 0.015M D,L-glyceraldehyde solution was added thereto for initiating the enzyme reaction and the decrease in the optical absorption at 340 nm was measured at 37° C. for 4 mins. The inhibitory activity on aldose reductase was calculated by the following equation: [formula] in which A represents the enzyme reaction rate with addition of the inhibitor and B denotes the enzyme reaction rate without addition of the inhibitor.

[2] = test system: Sciatic Nerve; assay: Suppression of sorbitol accumulation in cultured sciatic nerve; format: cell-based, Wistar rats; conditions: concentration 1.0 μg/ml, rat sciatic nerve cultured 20 hours with 0.9% glucose; for inhibition at 1 µg/mL: Rattus norvegicus, 20 h
Protocol: (§1) Lenses and sciatic nerves extirpated from Wistar rats, male, aged 7 weeks, were washed twice with an aseptic buffer solution consisting of 0.3% trisaminomethane, 0.8% NaCl, 0.038% KCl, 0.025% Na2 HPO4 ·12H2 O, 0.1% glucose and 1.85 ml/l of concentrated HCl.
(§2) The lenses and the sciatic nerves were then preincubated for 30 mins. in a culture medium prepared by adding 2 ml of 7.5% NaHCO3 aseptic solution and 5.5 ml of aseptic calf fetus serum to 100 ml of an aseptic culture medium of 0.98% TC Medium 199 (NISSUI Corp.) containing 0.01% of dihydrostreptomycin and 0.01% of benzylpenicillin. Thereafter, the intrinsic culture was effected in a culture medium prepared by adding each sample solution to be examined and 0.9% of glucose to the abovementioned culture medium and permitting culturing to proceed for 20 hours. The incubation was effected at 37° C. in an atmosphere composed of 95% air and 5% CO2.
(§3) After culturing, the cultured samples of lens and sciatic nerve were removed from the culture medium to filter paper and the weight of each of them was measured after the adherent culture solution had been blown off. Then, each of the cultured samples was homogenized with the addition of 1 ml of a cold 8% HClO4 solution and the homogenized mixture was subjected to centrifugation at 10,000 G for 10 mins., whereby a supernatant was obtained. The resulting precipitate was then homogenized again with addition thereto of 0.5 ml of cold 8% HClO4 solution and the homogenized mixture was again subjected to centrifugation in a similar way as above to obtain a further supernatant. This was combined with the previously obtained supernatant and the resulting solution was neutralized with 2N KOH aq. solution and was supplemented with distilled water to a volume of 5 ml. The precipitate formed by neutralization was separated by centrifugation at 3,000 rpm for 10 mins. and the resulting supernatant was employed as the sample for determining the sorbitol content.
(§4) The determination of the sorbitol content in the lens and in the sciatic nerve was carried out in accordance with the method of Bergmeyer in "Methods of Enzymatic Analysis" edited by H. U. Bergmeyer, pp 1323-1326, Academic Press, New York, 1974 and in accordance with the method of Malaon et al. in "Diabetes" 29, 861-864 (1980).
(§5) To 0.5 ml cf the sample solution for determination of sorbitol content obtained as above, 0.9 ml of 0.1M glycine-KOH buffer solution (pH 9.4) containing 1 mM of NAD^+ and 0.1 ml of a solution of sorbitol dehydrogenase of 20 units/ml were added and the resulting mixture was subjected to incubation at 37° C. for 1 hour.
(§6) The content of sorbitol in each tissue was estimated by assuming the increment of the optical absorption at 340 nm to be proportional to the amount of NADH produced by the reaction for the lens and by detecting the fluorescence with an excitation wavelength of 366 nm and a fluorescence wavelength of 425 nm for the sciatic nerve.
(§7) The activity for suppressing accumulation of sorbitol, i.e. the aldose reductase inhibiting activity, was calculated from the determined sorbitol content by the calculation formula [formula] in which A denotes the content of sorbitol per unit weight of the tissue after cultivation with addition of the inhibitor, B denotes the sorbitol content per unit weight of the tissue after cultivation without addition of the inhibitor and C represents the sorbitol content per unit weight of the tissue after cultivation in the medium without addition of glucose and inhibitor.

[3] = test system: Lens; assay: Suppression of sorbitol accumulation in cultured lens; format: cell-based, Wistar rats; conditions: rat lens cultured 20 hours with 0.9% glucose; for inhibition at 5 µg/mL: concentration 5 μg/ml; for inhibition at 2.5 µg/mL: concentration 2.5 μg/ml
Protocol: as §1, §2, §3, §4, §5, §6, §7

SMILES | inhibition at 0.02 µg/mL [1] | inhibition at 0.1 µg/mL [1] | inhibition at 1 µg/mL [1] | inhibition at 1 µg/mL [2] | inhibition at 5 µg/mL [3] | Inhibition of sorbitol Accumulation (%) Sciatic Nerve [2] | inhibition at 2.5 µg/mL [3]
O=C(O)CCCc1ccc(O)c(-c2cc(CCCC(=O)O)ccc2OCc2ccc(Br)cc2F)c1 [Example 19, 2-(2-fluoro-4-bromobenzyloxy)-2'-hydroxy-5, 5'-bis (3-carboxypropyl) biphenyl] | 23.8% | 62.6% |  |  |  |  | 
CCCCCCOc1ccc(CCC(=O)O)cc1-c1cc(CCC(=O)O)ccc1O [Example 8, 2-hexyloxy-2'-hydroxy-5,5'-bis (2carboxyethyl) biphenyl] |  | 58.6% | 91.9% |  |  |  | 
CCCCCCCOc1ccc(CCC(=O)O)cc1-c1cc(CCC(=O)O)ccc1O [Example 9, 2-heptyloxy-2'-hydroxy-5,5'-bis (2-carboxyethyl) biphenyl] |  | 65.3% | 91.9% | 37.8% | 65% |  | 
O=C(O)CCCc1ccc(O)c(-c2cc(CCCC(=O)O)ccc2OCCCCl)c1 [Example 28, 2-(3-chloropropoxy)-2'-hydroxy-5, 5'-bis (3-carboxypropyl) biphenyl] | 28.8% | 71.7% |  | 69% |  |  | 
O=C(O)CCc1ccc(O)c(-c2cc(CCC(=O)O)ccc2OCc2ccc(Br)cc2F)c1 [Example 2, 2-(2-fluoro-4-bromobenzyloxy)-2'-hydroxy-5,5'-bis (2-carboxyethyl) biphenyl] |  | 54% | 89.1% |  |  |  | 
CCCCCCCOc1ccc(CCCC(=O)O)cc1-c1cc(CCCC(=O)O)ccc1O [Example 25, 2-heptyloxy-2'-hydroxy-5,5'-bis (3-carboxypropyl) biphenyl] | 20.5% | 69.2% |  |  |  |  | 
CCOc1ccc(CCCC(=O)O)cc1-c1cc(CCCC(=O)O)ccc1O [Example 22, 2-ethoxy-2'-hydroxy-5,5'-bis (3-carboxypropyl) biphenyl] | 27.2% | 63.9% |  |  |  |  | 
CC(C)CCOc1ccc(CCCC(=O)O)cc1-c1cc(CCCC(=O)O)ccc1O [Example 27, 2-isopentyloxy-2'-hydroxy-5, 5'-bis (3-carboxypropyl) biphenyl] | 23.8% | 61.2% |  |  |  |  | 
O=C(O)CCc1ccc(O)c(-c2cc(CCC(=O)O)ccc2OCC2CCCCO2)c1 (centres unmarked) [Example 4, 2-(tetrahydro-2H-pyran-2-yl) methoxy-2'-hydroxy-5,5'-bis (2-carboxyethyl) biphenyl] |  | 50.4% | 88.2% |  |  |  | 
O=C(O)CCc1ccc(O)c(-c2cc(CCC(=O)O)ccc2OCC2CCCCC2)c1 [Example 3, 2-cyclohexylmethoxy-2'-hydroxy-5,5'-bis (2-carboxyethyl) biphenyl] |  | 73.6% | 91.9% | 73.2% | 85.2% | 64.8% | 44.7%
COc1ccc(CCC(=O)O)cc1-c1cc(CCC(=O)O)ccc1O [Example 16, 2-methoxy-2'-hydroxy-5,5'-bis (2-carboxyethyl) biphenyl] | 21.1% | 51.4% |  | 47.7% |  |  | 59.3%
COc1ccc(CCCC(=O)O)cc1-c1cc(CCCC(=O)O)ccc1O [Example 21, 2-methoxy-2'-hydroxy-5,5'-bis (3-carboxypropyl) biphenyl] | 14.7% | 52.7% |  | 75.4% |  |  | 48.8%
O=C(O)CCCOc1ccc(CCC(=O)O)cc1-c1cc(CCC(=O)O)ccc1O [Example 13, 2-(3-carboxypropoxy)-2'-hydroxy-5, 5'-bis (2-carboxyethyl) biphenyl] |  | 60.6% | 95.2% |  |  |  | 
O=C(O)CCc1ccc(O)c(-c2cc(CCC(=O)O)ccc2OCCc2ccccc2)c1 [Example 14, 2-phenethyloxy-2'-hydroxy-5, 5'-bis (2-carboxyethyl) biphenyl] |  | 52.4% | 90.5% | 62.4% |  |  | 
CCCCOc1ccc(CCC(=O)O)cc1-c1cc(CCC(=O)O)ccc1O [Example 6, 2-butoxy-2'-hydroxy-5,5'-bis (2-carboxyethyl) biphenyl] |  | 58.6% | 90% |  |  |  | 
CCCOc1ccc(CCCC(=O)O)cc1-c1cc(CCCC(=O)O)ccc1O [Example 23, 2-propoxy-2'-hydroxy-5,5'-bis (3-carboxypropyl) biphenyl] | 33.6% | 69.2% |  | 81.1% |  |  | 55.3%
O=C(O)CCCc1ccc(O)c(-c2cc(CCCC(=O)O)ccc2OCc2ccccc2)c1 [Example 18, 2-benzyloxy-2'-hydroxy-5,5'-bis (3-carboxypropyl) biphenyl] | 22% | 60.6% |  |  |  |  | 
CC(C)CCOc1ccc(CCC(=O)O)cc1-c1cc(CCC(=O)O)ccc1O [Example 12, 2-isopentyloxy-2'-hydroxy-5, 5'-bis (2-carboxyethyl) biphenyl] |  | 61.9% | 89.1% | 59.5% | 78.1% |  | 
CCCCCCCCOc1ccc(CCCC(=O)O)cc1-c1cc(CCCC(=O)O)ccc1O [Example 26, 2-octyloxy-2'-hydroxy-5,5'-bis (3-carboxypropyl) biphenyl] | 35.3% | 73.1% |  | 43.3% |  |  | 
CCCCOc1ccc(CCCC(=O)O)cc1-c1cc(CCCC(=O)O)ccc1O [Example 24, 2-butoxy-2'-hydroxy-5,5'-bis (3-carboxypropyl) biphenyl] | 25.6% | 62.6% |  |  |  |  | 
CCCCCCCCCCCOc1ccc(CCC(=O)O)cc1-c1cc(CCC(=O)O)ccc1O [Example 11, 2-undecyloxy-2'-hydroxy-5,5'-bis (2-carboxyethyl) biphenyl] |  | 81.5% | 92.8% | 34.7% |  |  | 
O=C(O)CCc1ccc(O)c(-c2cc(CCC(=O)O)ccc2OC2CCCCC2)c1 [Example 15, 2-cyclohexyloxy-2'-hydroxy-5, 5'-bis (2-carboxyethyl) biphenyl] |  | 47.6% | 89.6% | 43.2% |  |  | 
O=C(O)CCCc1ccc(O)c(-c2cc(CCCC(=O)O)ccc2OCC2CCCCC2)c1 [Example 20, 2-cyclohexylmethoxy-2'-hydroxy-5, 5'-bis (3-carboxypropyl) biphenyl] | 18.7% | 73.1% |  | 51.5% |  |  | 
CCCCCOc1ccc(CCC(=O)O)cc1-c1cc(CCC(=O)O)ccc1O [Example 7, 2-pentyloxy-2'-hydroxy-5,5'-bis (2carboxyethyl) biphenyl] |  | 56.4% | 90.9% |  |  |  | 
